Results as given in patent publication US11787825B2 (priority 2021, dated 2023).
Converted amounts (≈) assume the structure as drawn. Where two headings read alike, the source gives them in different places.

What was measured:
[1] = physchem; settings: 25 °C, thermodynamic from solid
[2] = fasted state simulated intestinal fluid (FaSSIF), fassif
[3] = fed state simulated intestinal fluid (FeSSIF), fessif
[4] = 0.1N HCL, 1.0% DMSO, 24-hour incubation at ambient temperature, maximum theoretical compound concentration 100 μM
[5] = 1×PBS buffer (pH 7.4), 1.0% DMSO, 24-hour incubation at ambient temperature, maximum theoretical compound concentration 100 μM

Compound: CC(C)(C#Cc1ccc(-c2ccc(Cl)c3c(N(C(=O)/C=C/C(=O)O)S(C)(=O)=O)nn(CC(F)(F)F)c23)c([C@H](Cc2cc(F)cc(F)c2)NC(=O)Cn2nc(C(F)(F)F)c3c2C(F)(F)[C@@H]2C[C@H]32)n1)S(C)(=O)=O [Compound 1, (E)-4-(N-(4-chloro-7-(2-((S)-1-(2-((3bS,4aR)-5,5-difluoro-3-(trifluoromethyl)-3b,4,4a,5-tetrahydro-1H-cyclopropa[3,4]cyclopenta[1,2-c]pyrazol-1-yl)acetamido)-2-(3,5-difluorophenyl)ethyl)-6-(3-methyl-3-(methylsulfonyl)but-1-yn-1-yl)pyridin-3-yl)-1-(2,2,2-trifluoroethyl)-1H-indazol-3-yl)methylsulfonamido)-4-oxobut-2-enoic acid]
- pH 7 solubility: 1/86 μM
- pH 2 solubility (pH 2): 1/86 μM
- solubility [1, 2]: 321 µg/mL (≈ 301 µM)
- solubility [1, 3]: 45 µg/mL (≈ 42.2 µM)

Compound: CC(C)(C#Cc1ccc(-c2ccc(Cl)c3c(N(C(=O)/C=C/C(=O)N[C@@H](CC(=O)O)C(=O)O)S(C)(=O)=O)nn(CC(F)(F)F)c23)c([C@H](Cc2cc(F)cc(F)c2)NC(=O)Cn2nc(C(F)(F)F)c3c2C(F)(F)[C@@H]2C[C@H]32)n1)S(C)(=O)=O [Compound 2, ((E)-4-(N-(4-chloro-7-(2-((S)-1-(2-((3bS,4aR)-5,5-difluoro-3-(trifluoromethyl)-3b,4,4a,5-tetrahydro-1H-cyclopropa[3,4]cyclopenta[1,2-c]pyrazolyl)acetamido)-2-(3,5-difluorophenyl)ethyl)-6-(3-methyl-3-(methylsulfonyl)but-1-ynyl)pyridin-3-yl)-1-(2,2,2-trifluoroethyl)-1H-indazol-3-yl)methylsulfonamido)-4-oxobutenoyl)-L-aspartic acid]
- pH 7 solubility: 1/95 μM
- pH 2 solubility (pH 2): 1/95 μM
- solubility [1, 2]: 810 µg/mL (≈ 686 µM)
- solubility [1, 3]: 655 µg/mL (≈ 554 µM)

Compound: CN(C)CC(=O)N(c1nn(CC(F)(F)F)c2c(-c3ccc(C#CC(C)(C)S(C)(=O)=O)nc3[C@H](Cc3cc(F)cc(F)c3)NC(=O)Cn3nc(C(F)(F)F)c4c3C(F)(F)[C@@H]3C[C@H]43)ccc(Cl)c12)S(C)(=O)=O [Compound 4, N-(4-chloro-7-(2-((S)-1-(2-((3bS,4aR)-5,5-difluoro-3-(trifluoromethyl)-3b,4,4a,5-tetrahydro-1H-cyclopropa[3,4]cyclopenta[1,2-c]pyrazol-1-yl)acetamido)-2-(3,5-difluorophenyl)ethyl)-6-(3-methyl-3-(methylsulfonyl)but-1-yn-1-yl)pyridin-3-yl)-1-(2,2,2-trifluoroethyl)-1H-indazol-3-yl)-2-(dimethylamino)-N-(methylsulfonyl)acetamide]
- pH 2 solubility [4]: 42 μM
- pH 7 solubility [5]: 1 μM
- solubility [1, 3]: 6 µg/mL (≈ 5.7 µM)

Compound: CN(C)CCCC[C@@H](C(=O)N(c1nn(CC(F)(F)F)c2c(-c3ccc(C#CC(C)(C)S(C)(=O)=O)nc3[C@H](Cc3cc(F)cc(F)c3)NC(=O)Cn3nc(C(F)(F)F)c4c3C(F)(F)[C@@H]3C[C@H]43)ccc(Cl)c12)S(C)(=O)=O)N(C)C [Compound 6, (S)—N-(4-chloro-7-(2-((S)-1-(2-((3bS,4aR)-5,5-difluoro-3-(trifluoromethyl)-3b,4,4a,5-tetrahydro-1H-cyclopropa[3,4]cyclopenta[1,2-c]pyrazol-1-yl)acetamido)-2-(3,5-difluorophenyl)ethyl)-6-(3-methyl-3-(methylsulfonyl)but-1-yn-1-yl)pyridin-3-yl)-1-(2,2,2-trifluoroethyl)-1H-indazol-3-yl)-2,6-bis(dimethylamino)-N-(methylsulfonyl)hexanamide]
- pH 2 solubility [4]: 100 μM
- pH 7 solubility [5]: 9 μM
- solubility [1, 2]: 21 µg/mL (≈ 18.2 µM)
- solubility [1, 3]: 1 µg/mL (≈ 0.868 µM)

Compound: C[C@H](N)C(=O)N(c1nn(CC(F)(F)F)c2c(-c3ccc(C#CC(C)(C)S(C)(=O)=O)nc3[C@H](Cc3cc(F)cc(F)c3)NC(=O)Cn3nc(C(F)(F)F)c4c3C(F)(F)[C@@H]3C[C@H]43)ccc(Cl)c12)S(C)(=O)=O [Compound 18, (S)-2-amino-N-(4-chloro-7-(2-((S)-1-(2-((3bS,4aR)-5,5-difluoro-3-(trifluoromethyl)-3b,4,4a,5-tetrahydro-1H-cyclopropa[3,4]cyclopenta[1,2-c]pyrazol-1-yl)acetamido)-2-(3,5-difluorophenyl)ethyl)-6-(3-methyl-3-(methylsulfonyl)but-1-yn-1-yl)pyridin-3-yl)-1-(2,2,2-trifluoroethyl)-1H-indazol-3-yl)-N-(methylsulfonyl)propenamide]
- pH 2 solubility [4]: 60 μM
- pH 7 solubility [5]: 1 μM
- solubility [1, 2]: 0.5 µg/mL (≈ 0.481 µM)
- solubility [1, 3]: 0.4 µg/mL (≈ 0.385 µM)

Compound: CC(C)(C#Cc1ccc(-c2ccc(Cl)c3c(N(C(=O)[C@@H](N)CCCNC(=N)N)S(C)(=O)=O)nn(CC(F)(F)F)c23)c([C@H](Cc2cc(F)cc(F)c2)NC(=O)Cn2nc(C(F)(F)F)c3c2C(F)(F)[C@@H]2C[C@H]32)n1)S(C)(=O)=O [Compound 22, 2-amino-N-(4-chloro-7-(2-((S)-1-(2-((3bS,4aR)-5,5-difluoro-3-(trifluoromethyl)-3b,4,4a,5-tetrahydro-1H-cyclopropa[3,4]cyclopenta[1,2-c]pyrazolyl)acetamido)-2-(3,5-difluorophenyl)ethyl)-6-(3-methyl-3-(methylsulfonyl)but-1-ynyl)pyridin-3-yl)-1-(2,2,2-trifluoroethyl)-1H-indazol-3-yl)-5-guanidino-N-(methylsulfonyl)pentanamide]
- pH 2 solubility [4]: 100 μM
- pH 7 solubility [5]: 27 μM
- solubility [1, 3]: 0.2 µg/mL (≈ 0.178 µM)

Compound: CC(C)(C#Cc1ccc(-c2ccc(Cl)c3c(N(C(=O)CCCOP(=O)(O)O)S(C)(=O)=O)nn(CC(F)(F)F)c23)c([C@H](Cc2cc(F)cc(F)c2)NC(=O)Cn2nc(C(F)(F)F)c3c2C(F)(F)[C@@H]2C[C@H]32)n1)S(C)(=O)=O [Compound 27, 4-(N-(4-chloro-7-(2-((S)-1-(2-((3bS,4aR)-5,5-difluoro-3-(trifluoromethyl)-3b,4,4a,5-tetrahydro-1H-cyclopropa[3,4]cyclopenta[1,2-c]pyrazol-1-yl)acetamido)-2-(3,5-difluorophenyl)ethyl)-6-(3-methyl-3-(methylsulfonyl)but-1-yn-1-yl)pyridin-3-yl)-1-(2,2,2-trifluoroethyl)-1H-indazol-3-yl)methylsulfonamido)-4-oxobutyl dihydrogen phosphate]
- pH 2 solubility [4]: 1 μM
- pH 7 solubility [5]: 26 μM
- solubility [1, 2]: 190 µg/mL
- solubility [1, 3]: 450 µg/mL

Compound: CC(C)(C#Cc1ccc(-c2ccc(Cl)c3c(N(C(=O)CCCC(=O)OCOP(=O)(O)O)S(C)(=O)=O)nn(CC(F)(F)F)c23)c([C@H](Cc2cc(F)cc(F)c2)NC(=O)Cn2nc(C(F)(F)F)c3c2C(F)(F)[C@@H]2C[C@H]32)n1)S(C)(=O)=O [Compound 29, (phosphonooxy)methyl 5-(N-(4-chloro-7-(2-((S)-1-(2-((3bS,4aR)-5,5-difluoro-3-(trifluoromethyl)-3b,4,4a,5-tetrahydro-1H-cyclopropa[3,4]cyclopenta[1,2-c]pyrazol-1-yl)acetamido)-2-(3,5-difluorophenyl)ethyl)-6-(3-methyl-3-(methylsulfonyl)but-1-yn-1-yl)pyridin-3-yl)-1-(2,2,2-trifluoroethyl)-1H-indazol-3-yl)methylsulfonamido)-5-oxopentanoate]
- pH 2 solubility [4]: 2 μM
- pH 7 solubility [5]: 92 μM
- solubility [1, 2]: 268 µg/mL (≈ 225 µM)
- solubility [1, 3]: 130 µg/mL (≈ 109 µM)

Compound: CC(C)(C#Cc1ccc(-c2ccc(Cl)c3c(N(C(=O)CNC(=O)OCOP(=O)(O)O)S(C)(=O)=O)nn(CC(F)(F)F)c23)c([C@H](Cc2cc(F)cc(F)c2)NC(=O)Cn2nc(C(F)(F)F)c3c2C(F)(F)[C@@H]2C[C@H]32)n1)S(C)(=O)=O [Compound 35, (phosphonooxy)methyl (2-(N-(4-chloro-7-(2-((S)-1-(2-((3bS,4aR)-5,5-difluoro-3-(trifluoromethyl)-3b,4,4a,5-tetrahydro-111-cyclopropa[3,4]cyclopenta[1,2-c]pyrazol-1-yl)acetamido)-2-(3,5-difluorophenyl)ethyl)-6-(3-methyl-3-(methylsulfonyl)but-1-yn-1-yl)pyridin-3-yl)-1-(2,2,2-trifluoroethyl)-1H-indazol-3-yl)methylsulfonamido)-2-oxoethyl)carbamate]
- pH 2 solubility [4]: 2 μM
- pH 7 solubility [5]: 48 μM
- solubility ([1]; fassif): 883 µg/mL (≈ 749 µM)

Compound: C[C@H](NC(=O)OCOP(=O)(O)O)C(=O)N(c1nn(CC(F)(F)F)c2c(-c3ccc(C#CC(C)(C)S(C)(=O)=O)nc3[C@H](Cc3cc(F)cc(F)c3)NC(=O)Cn3nc(C(F)(F)F)c4c3C(F)(F)[C@@H]3C[C@H]43)ccc(Cl)c12)S(C)(=O)=O [Compound 36, (phosphonooxy)methyl ((S)-1-(N-(4-chloro-7-(2-((S)-1-(2-((3bS,4aR)-5,5-difluoro-3-(trifluoromethyl)-3b,4,4a,5-tetrahydrocyclopropa[3,4]cyclopenta[1,2-c]pyrazol-1-yl)acetamido)-2-(3,5-difluorophenyl)ethyl)-6-(3-methyl-3-(methylsulfonyl)but-1-yn-1-yl)pyridin-3-yl)-1-(2,2,2-trifluoroethyl)-1H-indazolyl)methylsulfonamido)-1-oxopropan-2-yl)carbamate]
- pH 2 solubility [4]: 3 μM
- pH 7 solubility [5]: 100 μM
- solubility ([1]; fassif): 661 µg/mL (≈ 554 µM)

Compound: CN(CC(=O)N(c1nn(CC(F)(F)F)c2c(-c3ccc(C#CC(C)(C)S(C)(=O)=O)nc3[C@H](Cc3cc(F)cc(F)c3)NC(=O)Cn3nc(C(F)(F)F)c4c3C(F)(F)[C@@H]3C[C@H]43)ccc(Cl)c12)S(C)(=O)=O)C(=O)OCOP(=O)(O)O [Compound 37, (phosphonooxy)methyl (2-(N-(4-chloro-7-(2-((S)-1-(2-((3bS,4aR)-5,5-difluoro-3-(trifluoromethyl)-3b,4,4a,5-tetrahydro-111-cyclopropa[3,4]cyclopenta[1,2-c]pyrazol-1-yl)acetamido)-2-(3,5-difluorophenyl)ethyl)-6-(3-methyl-3-(methylsulfonyl)but-1-yn-1-yl)pyridin-3-yl)-1-(2,2,2-trifluoroethyl)-1H-indazol-3-yl)methylsulfonamido)-2-oxoethyl)(methyl)carbamate]
- pH 2 solubility [4]: 1 μM
- pH 7 solubility [5]: 79 μM
- solubility ([1]; fassif): 674 µg/mL (≈ 565 µM)
